Measurements reported in article PMC4666608, “Metabolic Profiling of Chicken Embryos Exposed to Perfluorooctanoic Acid (PFOA) and Agonists to Peroxisome Proliferator-Activated Receptors” (PLoS ONE, 2015).
Marks after values point to notes of the source that are not given here.

Test system: chicken embryos
Assay: Metabolic profiling of blood plasma (GC-MS, LC-MS, OPLS-DA)
Assay type: in vivo, Gallus gallus domesticus
Conditions: for Mean concentration relative to control, feature Win006_C03 / Mean concentration relative to control, feature Win011_C02 (Isoleucine) / Mean concentration relative to control, feature Win027_C13 / Mean concentration relative to control, feature Win031_C03 (Citric acid) / Mean concentration relative to control, feature Win034_C08 (Tyrosine) / Mean concentration relative to control, feature Win034_C09 (Tyrosine) / Mean concentration relative to control, feature Win039_C07 / Mean concentration relative to control, feature Win043_C02 (Cystathionine) / Mean concentration relative to control, feature Win061_C01 / Mean concentration relative to control, feature Win066_C03 / Mean concentration relative to control, feature Win088_C02: GC
Experimental: Controls were injected with 20 μL vehicle only (DMSO).
Plasma was collected and stored at -70°C.
Metabolites in allantoic fluid and blood plasma were analyzed using gas chromatography-mass spectrometry (GC-MS) and liquid chromatography-mass spectrometry (LC-MS) as described in S1 Methods. Prior to GC-MS and LC-MS analysis, allantoic fluid (100 μL) and blood plasma (50 μL) were extracted. To each sample, 900 μL (allantoic fluid) or 450 μL (blood plasma) of extraction buffer (90/10 v/v methanol:water) including all internal standards were added. Standards for GC-MS were proline, succinic acid, glutamic acid, salicylic acid, alpha-ketoglutarate, putrescine, myristic acid, hexadecanoic acid, cholesterol, and sucrose. Standards for LC-MS were Val-Tyr-Val, Leu-enkephalin, sulfadimethoxine and reserpine. Samples were homogenized by shaking in a bead mill at a frequency of 30 Hz for 3 minutes and proteins were precipitated at +4°C on ice. The samples were centrifuged at +4°C, 14000 rpm, for 10 min. Then, 200 μL supernatant was transferred to a GC microvial and 200 μL was transferred to an LC microvial, and solvents were evaporated. Samples from the four replicate experiments were analyzed using in chronological order and within each replicate experiment the run order of the individual samples was randomized.
Multivariate statistical analyses of metabolite profiles were performed using the software package SIMCA-P version 13.0 (Umetrics, Umeå, Sweden). Data was centered and scaled to variance 1 (UV scaling) prior to modelling. To reduce unintended systematic variation caused by sample processing and instrument drift, GC-MS and LC-MS metabolite amounts (expressed as the area under the chromatographic peak) were normalized by Orthogonal Partial Least Squares analysis (O2PLS) prior to multivariate data analysis. O2PLS finds common (predictive) and unique (orthogonal) variation in two data matrices. If applied to find the common variation between the data matrix containing the measured metabolite concentrations and a matrix containing only the internal standards, the only common (predictive) variation expected is due to the unintended systematic variation. By deleting the contribution of the predictive latent variables, that variation can be removed from the data. Models obtained after this normalization contain in general less latent variables, and this simplification helps when deciding on the number of latent variables to be used. Following normalization, GC-MS and LC-MS data were analyzed together. Initially, a global Principal Component Analysis (PCA) was performed to get an overview of groups and trends and to identify outliers. Projections to latent structures by means of Orthogonal Partial Least Squares Discriminant Analysis (OPLS-DA) was used to model the relationship between the X-matrix (metabolite concentrations) and the Y matrix (class, i.e. exposure group or sex), and to find x-variables that were related to class belonging. OPLS-DA is a supervised prediction and regression method that rotates the projection plane to find the maximum covariance between the data and the class assignment. All groups were first analyzed together in a 5-class OPLS-DA and then each exposure group was analyzed against the control group in a 2-class OPLS-DA. Sex differences were analyzed both using the whole data set and in each group separately using 2-class OPLS-DA, with females and males as the two classes. Only variables with 80% or more nonzero values were included in the statistical models. […] The validity of each model was also checked using CV-ANOVA (ANOVA of the cross-validated residuals). A significance level of p < 0.05 was used. For each model, R ^2 X, R ^2 Y and Q ^2 values were calculated, where R ^2 X is a measure of the fraction of x variation modeled in the extracted latent variables, R ^2 Y is a measure of the fraction of y variation modeled and Q ^2 is an estimate of the predictive ability of the model and is calculated by cross-validation. […]

Structure (SMILES): O=C(O)C(F)(F)C(F)(F)C(F)(F)C(F)(F)C(F)(F)C(F)(F)C(F)(F)F [PFOA, perfluorooctanoic acid]
- Mean concentration relative to control, feature Win006_C03 (PFOA 50): 1.1*
- Mean concentration relative to control, feature Win011_C02 (Isoleucine) (PFOA 50): 1.1
- Mean concentration relative to control, feature Win027_C13 (PFOA 50): 0.9
- Mean concentration relative to control, feature Win031_C03 (Citric acid) (PFOA 50): 1
- Mean concentration relative to control, feature Win034_C08 (Tyrosine) (PFOA 50): 1.1
- Mean concentration relative to control, feature Win034_C09 (Tyrosine) (PFOA 50): 1.1
- Mean concentration relative to control, feature Win039_C07 (PFOA 50): 1.3
- Mean concentration relative to control, feature Win043_C02 (Cystathionine) (PFOA 50): 1.1
- Mean concentration relative to control, feature Win061_C01 (PFOA 50): 0.9
- Mean concentration relative to control, feature Win066_C03 (PFOA 50): 1
- Mean concentration relative to control, feature Win088_C02 (PFOA 50): 1
- Mean concentration relative to control, feature Win006_C03 (PFOA 250): 1.1*
- Mean concentration relative to control, feature Win011_C02 (Isoleucine) (PFOA 250): 1.1*
- Mean concentration relative to control, feature Win027_C13 (PFOA 250): 0.8*
- Mean concentration relative to control, feature Win031_C03 (Citric acid) (PFOA 250): 1
- Mean concentration relative to control, feature Win034_C08 (Tyrosine) (PFOA 250): 1
- Mean concentration relative to control, feature Win034_C09 (Tyrosine) (PFOA 250): 1.0
- Mean concentration relative to control, feature Win039_C07 (PFOA 250): 1.3
- Mean concentration relative to control, feature Win043_C02 (Cystathionine) (PFOA 250): 1.1
- Mean concentration relative to control, feature Win061_C01 (PFOA 250): 0.9
- Mean concentration relative to control, feature Win066_C03 (PFOA 250): 1
- Mean concentration relative to control, feature Win088_C02 (PFOA 250): 1
- Mean concentration relative to control, feature 118.0284@2.480333 (C4H6O4) (LC, PFOA 50): 1
- Mean concentration relative to control, feature 122.0486@0.675613 (LC, PFOA 50): 1.1
- Mean concentration relative to control, feature 126.0428@1.2278157 (Thymine) (LC, PFOA 50): 1.1
- Mean concentration relative to control, feature 146.0362@0.7772238 (LC, PFOA 50): 1.1
- Mean concentration relative to control, feature 159.0686@1.1608156 (LC, PFOA 50): 1
- Mean concentration relative to control, feature 164.0449@0.7694838 (LC, PFOA 50): 1.1
- Mean concentration relative to control, feature 202.1024@5.0303197 (C8H14N2O4) (LC, PFOA 50): 1.1
- Mean concentration relative to control, feature 203.1162@0.5130696 (LC, PFOA 50): 1.1
- Mean concentration relative to control, feature 213.2458@7.4887733 (LC, PFOA 50): 1
- Mean concentration relative to control, feature 215.047@1.6260729 (C5H14NO6P) (LC, PFOA 50): 1.0
- Mean concentration relative to control, feature 226.0721@1.9460537 (LC, PFOA 50): 1
- Mean concentration relative to control, feature 231.0174@1.6241412 (LC, PFOA 50): 1
- Mean concentration relative to control, feature 233.1265@2.535991 (LC, PFOA 50): 1.1
- Mean concentration relative to control, feature 250.1317@2.1334834 (LC, PFOA 50): 1.1
- Mean concentration relative to control, feature 260.0508@0.69984084 (LC, PFOA 50): 0.6**
- Mean concentration relative to control, feature 276.0173@1.6283482 (LC, PFOA 50): 1
- Mean concentration relative to control, feature 278.0939@1.3354088 (LC, PFOA 50): 1
- Mean concentration relative to control, feature 293.0903@1.5739433 (LC, PFOA 50): 1
- Mean concentration relative to control, feature 307.2147@7.5065937 (C18H29NO3) (LC, PFOA 50): 1.3**
- Mean concentration relative to control, feature 310.178@7.5343466 (LC, PFOA 50): 1
- Mean concentration relative to control, feature 339.3861@9.528681 (LC, PFOA 50): 1.4*
- Mean concentration relative to control, feature 342.2883@7.526812 (LC, PFOA 50): 0.9**
- Mean concentration relative to control, feature 348.0675@1.5761927 (LC, PFOA 50): 1
- Mean concentration relative to control, feature 355.9454@0.68034226 (LC, PFOA 50): 1
- Mean concentration relative to control, feature 362.1467@0.8461036 (LC, PFOA 50): 1.1
- Mean concentration relative to control, feature 366.1431@1.4228548 (LC, PFOA 50): 1
- Mean concentration relative to control, feature 373.296@9.044806 (LC, PFOA 50): 1
- Mean concentration relative to control, feature 375.3108@8.995564 (LC, PFOA 50): 1
- Mean concentration relative to control, feature 389.2686@9.046645 (LC, PFOA 50): 1
- Mean concentration relative to control, feature 407.0999@1.585909 (LC, PFOA 50): 1
- Mean concentration relative to control, feature 412.135@2.4779084 (C17H24N4O6S) (LC, PFOA 50): 1
- Mean concentration relative to control, feature 444.3607@10.33052 (LC, PFOA 50): 0.9
- Mean concentration relative to control, feature 471.9819@0.685074 (LC, PFOA 50): 1
- Mean concentration relative to control, feature 489.1508@8.562614 (LC, PFOA 50): 0.8*
- Mean concentration relative to control, feature 509.1184@2.4798179 (LC, PFOA 50): 1
- Mean concentration relative to control, feature 525.2855@8.361063 (LC, PFOA 50): 1.1
- Mean concentration relative to control, feature 545.2492@8.463657 (LC, PFOA 50): 1.1
- Mean concentration relative to control, feature 558.4095@9.459733 (LC, PFOA 50): 1.2
- Mean concentration relative to control, feature 565.1902@0.7699907 (LC, PFOA 50): 1.1
- Mean concentration relative to control, feature 577.2747@9.25652 (LC, PFOA 50): 1
- Mean concentration relative to control, feature 581.1643@0.77029324 (LC, PFOA 50): 1.1
- Mean concentration relative to control, feature 634.2403@1.9467853 (LC, PFOA 50): 1
- Mean concentration relative to control, feature 644.1614@0.7647065 (LC, PFOA 50): 1.1
